Source: publication PMC10464554 (Journal of Enzyme Inhibition and Medicinal Chemistry, 2023)

Experiments:
[1] = system: Nsp5; settings: irreversible inhibitor of Nsp5; cited from earlier work
[2] = system: SARS-CoV-2; settings: Vero E6 cells, 72 h readout; cited from earlier work
[3] = system: SARS-CoV-2; settings: replication of SARS-CoV-2 in Vero E6 cells; cited from earlier work
[4] = system: SARS-CoV-2 BA.5 strain; format: cell-based
[5] = system: Vero E6 cells; settings: 200–0.1 µM, 24 h, MTT
[6] = target: Nsp5; settings: cited from earlier work
[7] = target: NT650-Nps5 (recombinant SARS-CoV-2 main protease Nsp5) (Severe acute respiratory syndrome coronavirus 2, UniProt P0DTD1); assay: biochemical; format: binding

In the case of `O=c1c(O)c(-c2cc(O)c(O)c(O)c2)oc2cc(O)cc(O)c12` [Myricetin (2), myricetin], the IC50 [1] is given as 630 ± 10 nM, the “Antiviral SARS-CoV-2 activity (CPE inhibition)” value [2] is given as “devoid of antiviral SARS-CoV-2 activity” and the EC50 [3] is given as 8000 nM.

In the case of `CC(C)(C)[C@H](NC(=O)C(F)(F)F)C(=O)N1C[C@H]2[C@@H]([C@H]1C(=O)N[C@H](C#N)C[C@@H]1CCNC1=O)C2(C)C` [Nirmatrelvir (1), Nirmatrelvir], the “Viral replication (supernatant viral titre)” value [4] is reported as “significantly reduce the number of infective particles” and the “Cell viability (cytotoxic effect)” value [5] is reported as “well-tolerated by Vero E6 cells at all the concentrations tested”.

In the case of `O=c1oc2c(O)c(O)cc3c(=O)oc4c(O)c(O)cc1c4c23` [Ellagic acid (7), ellagic acid], the “Dissociation constant (SPR)” value [6] is listed as “low micromolar”, the Kd [7] is listed as 970 ± 140 nM and the “Binding Efficiency Index (BEI)” value ([7]; BEI = pKd/MW (kDa)) is listed as 19.9.
